The numbers were not newly measured in patent US6951654B2, “Intravaginal drug delivery devices for the administration of an antimicrobial agent” (Galen (Chemicals) Limited, priority 2001, dated 2005), which cites them from elsewhere.

Molecules are shown by their SMILES.

For the series the following is noted: at 20° C.; Merck Index.

On to `Cc1ncc([N+](=O)[O-])n1CCO` [metronidazole, 2-methyl-5-nitro-1H-imidazole-1-ethanol], for which the solubility in water is 1 g per 100 ml.
